Data reported in patent publication US7527935B2, “G-protein coupled receptor having eicosanoid as ligand and gene thereof” (Mitsubishi Tanabe Pharma Corporation, priority 2002, dated 2009).

Legend:
neutrophils = test: Migration test of neutrophils; type: cell-based; settings: purified human neutrophils; 2 hours
Description: Neutrophils were purified as follows. Blood was collected (50 ml) from healthy male adult volunteers. Then, 12.5 ml each of the collected blood was poured into a 50 ml tube containing 23 ml physiological saline, and, the total volume was adjusted to 40 ml with physiological saline. To a bottom of the tube, Percoll solution (specific gravity: 1.079±0.004, 10 ml) was gently added, and the mixture was centrifuged at 430×g, for 20 minutes at room temperature, without deceleration or acceleration.
After washing the eosinophils and neutrophils purified in the above sections, the cells were suspended in RPMI1640 supplemented with 0.1% BSA (not containing phenol red) which contains 3 μM Calcein-AM (Dojindo laboratories, fluorescence reagent), so that the cell count became 1×10^6 cells/ml. The suspension was incubated at 37° C. for 30 minutes. The cells were washed twice with the same culture medium, and suspended in the same medium so that the cell count became 1×10^6 cells/ml. […]
After the reaction, the chambers were removed, and to the lower chamber was added 66 μl of 10× lysis buffer (5% Triton X-100 dissolved in PBS, 10% ethanol). […] 200 μl of the cell lysate was transferred to 96 well black plate (237105, Nunc), and fluorescence intensities were measured using a fluorometer (ARVO™ SX, Wallac) with an excitation wavelength of 485 nm and a fluorescence wavelength of 535 nm.

[1] = target: T1, fusion protein of TG1019 protein and Gqα (Homo sapiens, UniProt Q8TDS5, D111G/K206E/T295A); test: [35S]GTPγS binding to membrane fraction containing TG1019-Gqα fusion protein; type: biochemical; settings: membrane fraction with TG1019-Gqα fusion protein; increase small compared to Giα
T1 construct: made in house; host or cells: Sf9 insect cells (baculovirus, pVL1392), membrane fraction
T1 sequence (Q8TDS5 with tags, fused parts or gaps D111G/K206E/T295A): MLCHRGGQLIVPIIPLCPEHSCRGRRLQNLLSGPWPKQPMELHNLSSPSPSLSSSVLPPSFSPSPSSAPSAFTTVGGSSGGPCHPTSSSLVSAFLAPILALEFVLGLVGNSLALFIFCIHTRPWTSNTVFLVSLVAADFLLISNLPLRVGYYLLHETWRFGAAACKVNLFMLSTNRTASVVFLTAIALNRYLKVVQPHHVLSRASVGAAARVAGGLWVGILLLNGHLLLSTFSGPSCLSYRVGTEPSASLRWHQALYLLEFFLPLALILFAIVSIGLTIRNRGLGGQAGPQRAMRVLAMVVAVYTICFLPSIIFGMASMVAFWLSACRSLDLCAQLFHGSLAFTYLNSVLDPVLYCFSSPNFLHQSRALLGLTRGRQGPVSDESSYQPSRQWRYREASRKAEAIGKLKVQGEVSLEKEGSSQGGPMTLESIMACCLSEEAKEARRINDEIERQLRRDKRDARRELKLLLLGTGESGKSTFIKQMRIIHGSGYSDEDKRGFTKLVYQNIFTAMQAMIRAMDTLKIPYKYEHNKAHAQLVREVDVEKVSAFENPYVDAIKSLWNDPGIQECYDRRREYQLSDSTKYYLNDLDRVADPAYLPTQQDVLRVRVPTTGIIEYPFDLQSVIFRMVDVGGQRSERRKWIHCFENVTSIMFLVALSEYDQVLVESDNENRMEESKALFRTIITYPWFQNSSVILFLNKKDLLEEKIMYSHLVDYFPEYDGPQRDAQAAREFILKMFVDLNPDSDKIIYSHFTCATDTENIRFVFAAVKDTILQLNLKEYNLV
From the text: (§1) As stated in Example 1, it is concluded that TG1019 protein is a G-protein coupled receptor. Therefore, using a membrane fraction containing fused protein of TG1019 and G-protein, a ligand is identified as follows, according to a method for detecting a ligand-dependent binding with GTPγS (guanosine 5′-O-(3-thiotriphosphate)) [Wenzel-Seifert, et al., Mol. Pharmacom., Vol. 58, pp. 954-966, 2000; Bahia, et al., Biochemistry, Vol. 37, pp. 11555-11562, 1998].
Sf9 cells were inoculated onto a 10 cm Petri dish coated with collagen to about 70% confluence, and added thereto were Virus solution III (100 μl) obtained above and 12 ml of a culture medium, and the mixture was cultured at 27° C. for 4 days. […]
The membrane fraction (450 μl) obtained above (2) was suspended in a reaction buffer (7.54 ml), and added thereto was GDP (10 mM, 10 μl). […] GTPγS (a binding amount to the membrane fraction) on the filter was measured by liquid scintillation counting. From the thus measured [^35S] GTPγS binding amount was subtracted a nonspecific binding amount (a binding amount measured in the presence of 10 μM GTPγS), to obtain a specific binding amount of [^35S ] […]

[2] = target: T2, fusion protein of TG1019 protein and Giα1 (351Cys→Ile) (Homo sapiens, UniProt P63096+Q8TDS5, C351I/D111G/K206E/T295A); test: [35S]GTPγS binding to membrane fraction containing TG1019-Giα1 (351Cys→Ile) fusion protein (ligand identification); type: biochemical; settings: membrane fraction with TG1019-Giα1 (351Cys→Ile) fusion protein
T2 construct: made in house; host or cells: Sf9 insect cells (baculovirus, pVL1392), membrane fraction
T2 sequence (Q8TDS5+P63096 fused Q8TDS5:D111G/Q8TDS5:K206E/Q8TDS5:T295A/P63096:C351I): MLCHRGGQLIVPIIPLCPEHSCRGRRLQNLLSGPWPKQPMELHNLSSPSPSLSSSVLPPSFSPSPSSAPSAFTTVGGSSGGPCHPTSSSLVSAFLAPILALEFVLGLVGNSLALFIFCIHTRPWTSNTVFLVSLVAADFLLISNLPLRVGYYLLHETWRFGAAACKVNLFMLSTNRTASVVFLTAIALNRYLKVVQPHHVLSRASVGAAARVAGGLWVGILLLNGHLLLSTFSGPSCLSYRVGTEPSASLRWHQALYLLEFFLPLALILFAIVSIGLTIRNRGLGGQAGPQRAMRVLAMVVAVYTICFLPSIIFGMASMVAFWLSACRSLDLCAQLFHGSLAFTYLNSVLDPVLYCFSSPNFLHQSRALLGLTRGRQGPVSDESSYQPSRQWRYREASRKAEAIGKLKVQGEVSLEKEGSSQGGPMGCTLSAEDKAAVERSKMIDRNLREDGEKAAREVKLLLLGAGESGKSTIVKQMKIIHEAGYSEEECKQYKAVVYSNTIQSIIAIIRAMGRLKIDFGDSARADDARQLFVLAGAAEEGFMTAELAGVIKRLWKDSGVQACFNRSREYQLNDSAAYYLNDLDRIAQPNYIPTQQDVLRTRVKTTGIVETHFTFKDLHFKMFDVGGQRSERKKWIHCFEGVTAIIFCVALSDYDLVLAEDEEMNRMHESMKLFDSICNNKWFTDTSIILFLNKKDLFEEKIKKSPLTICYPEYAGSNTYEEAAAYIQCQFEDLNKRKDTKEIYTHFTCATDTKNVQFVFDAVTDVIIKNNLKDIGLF
From the text: as §1
Sf9 cells were inoculated onto a 10 cm Petri dish coated with collagen to about 70% confluence, and added thereto were Virus solution III (100 μl) obtained above and 12 ml of a culture medium, and the mixture was cultured at 27° C. for 4 days. The obtained cells were washed with a cooled PBS (Phosphate buffered saline, pH 7.4), and suspended in 3.6 ml of a cooled solution buffer [20 mM Tris-HCl, pH 7.5, 1 mM EDTA, 0.2 mM phenylmethylsulfonyl fluoride, 10 μg/ml pepstatin, 10 μg/ml leupeptin, and 2 μg/ml aprotinin], and the cells were homogenized by means of a Teflon homogenizer. This cell homogenate was centrifuged (600×g, 10 minutes), and the resultant supernatant was further centrifuged (50,000×g, 20 minutes). The obtained sediments were suspended in 450 μl of a cooled reaction buffer [20 mM Tris-HCl, pH 7.5, 50 mM sodium chloride, 10 mM magnesium chloride] by means of a Teflon homogenizer, to prepare a membrane fraction containing a fusion protein.
The membrane fraction (450 μl) obtained above (2) was suspended in a reaction buffer (7.54 ml), and added thereto was GDP (10 mM, 10 μl). To 160 μl of this solution was added 20 μl of a test compound. After incubating the mixture at 30° C. for 10 minutes, 20 μl of [^35S] GTPγS (5 nM, 5 nCi/μl: available from Amersham Pharmacia Biotech) was added to start reaction. After incubating the mixture at 30° C. for one hour, the reaction was terminated by filtration through a glass filter (UniFilter-96GF/B, available from Packard). The filter was washed with 200 μl of a cooled reaction buffer for 3 times, and an amount of the [^35S] GTPγS (a binding amount to the membrane fraction) on the filter was measured by liquid scintillation counting. From the thus measured [^35S] GTPγS binding amount was subtracted a nonspecific binding amount (a binding amount measured in the presence of 10 μM GTPγS), to obtain a specific binding amount of [^35S ] GTPγS.

CCCCC/C=C\C/C=C\C/C=C\C=C\C(=O)CCCC(=O)O [5-oxo-ETE, 5-oxo-6E,8Z,11Z,14Z-eicosatetraenoic acid]
migration of neutrophils (neutrophils): has an ability to make these cells migrate | specific binding amount of [35S]GTPγS [1]: increased | specific binding amount of [35S]GTPγS [2]: increased in a concentration-dependent manner
